From PubChem BioAssay AID2060330 (Molecular Pharmacology Branch, DTP, NCI, 2025)

Test system: LG0703-F948-PDC spheroids with HUVEC/MSC, viability
Assay: Anticancer human tumor LG0703-F948-PDC patient-derived lung adenocarcinoma cell line growth inhibition [IpAb]
Conditions: for IC50: curve of first compound; for viability, T/C: stronger effect = lower value
Summary of the method: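 Combinations with ipatasertib or abemaciclib were tested on tumour spheroids holding HUVEC (25%) and MSC (15%) alongside 60% malignant cells. Top concentration was at or near clinical Cmax (10 microM if undefined), descending in half-log steps.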

[1] = second compound 0.01 µM, first compound 0.00949 µM
[2] = second compound 0.01 µM, first compound 0.03 µM
[3] = second compound 0.01 µM, first compound 0.0949 µM
[4] = second compound 0.01 µM, first compound 0.3 µM
[5] = second compound 0.0316 µM, first compound 0.00949 µM
[6] = second compound 0.0316 µM, first compound 0.03 µM
[7] = second compound 0.0316 µM, first compound 0.0949 µM
[8] = second compound 0.0316 µM, first compound 0.3 µM
[9] = second compound 0.1 µM, first compound 0.00949 µM
[10] = second compound 0.1 µM, first compound 0.03 µM
[11] = second compound 0.1 µM, first compound 0.0949 µM
[12] = second compound 0.1 µM, first compound 0.3 µM
[13] = second compound 0.316 µM, first compound 0.00949 µM
[14] = second compound 0.316 µM, first compound 0.03 µM
[15] = second compound 0.316 µM, first compound 0.0949 µM
[16] = second compound 0.316 µM, first compound 0.3 µM
[17] = second compound 1 µM, first compound 0.00949 µM
[18] = second compound 1 µM, first compound 0.03 µM
[19] = second compound 1 µM, first compound 0.0949 µM
[20] = second compound 1 µM, first compound 0.3 µM
[21] = second compound 0.01 µM, first compound 0.0316 µM
[22] = second compound 0.01 µM, first compound 0.1 µM
[23] = second compound 0.01 µM, first compound 0.316 µM
[24] = second compound 0.01 µM, first compound 1 µM
[25] = second compound 0.0316 µM, first compound 0.0316 µM
[26] = second compound 0.0316 µM, first compound 0.1 µM
[27] = second compound 0.0316 µM, first compound 0.316 µM
[28] = second compound 0.0316 µM, first compound 1 µM
[29] = second compound 0.1 µM, first compound 0.0316 µM
[30] = second compound 0.1 µM, first compound 0.1 µM
[31] = second compound 0.1 µM, first compound 0.316 µM
[32] = second compound 0.1 µM, first compound 1 µM
[33] = second compound 0.316 µM, first compound 0.0316 µM
[34] = second compound 0.316 µM, first compound 0.1 µM
[35] = second compound 0.316 µM, first compound 0.316 µM
[36] = second compound 0.316 µM, first compound 1 µM
[37] = second compound 1 µM, first compound 0.0316 µM
[38] = second compound 1 µM, first compound 0.1 µM
[39] = second compound 1 µM, first compound 0.316 µM
[40] = second compound 1 µM, first compound 1 µM
[41] = second compound 0.01 µM, first compound 3.16 µM
[42] = second compound 0.01 µM, first compound 10 µM
[43] = second compound 0.0316 µM, first compound 3.16 µM
[44] = second compound 0.0316 µM, first compound 10 µM
[45] = second compound 0.1 µM, first compound 3.16 µM
[46] = second compound 0.1 µM, first compound 10 µM
[47] = second compound 0.316 µM, first compound 3.16 µM
[48] = second compound 0.316 µM, first compound 10 µM
[49] = second compound 1 µM, first compound 3.16 µM
[50] = second compound 1 µM, first compound 10 µM
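Note: spheroids exposed to compounds for seven days before readout.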
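Throughout, for viability, T/C: T/C percent relative to DMSO vehicle wells set as 100% viability.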

Compound: CC(=O)c1c(C)c2cnc(Nc3ccc(N4CCNCC4)cn3)nc2n(C2CCCC2)c1=O + CCN1CCN(Cc2ccc(Nc3ncc(F)c(-c4cc(F)c5nc(C)n(C(C)C)c5c4)n3)nc2)CC1
- IC50 (second compound 0.01 µM): > 300 nM
- IC50 (second compound 0.0316 µM): > 300 nM
- IC50 (second compound 0.1 µM): > 300 nM
- IC50 (second compound 0.316 µM): > 300 nM
- IC50 (second compound 1 µM): > 300 nM
- viability, T/C (second compound 0.01 µM, first compound 0.000949 µM): 106%
- viability, T/C (second compound 0.01 µM, first compound 0.003 µM): 102%
- viability, T/C [1]: 92%
- viability, T/C [2]: 89.5%
- viability, T/C [3]: 88.7%
- viability, T/C [4]: 83.9%
- viability, T/C (second compound 0.0316 µM, first compound 0.000949 µM): 97.9%
- viability, T/C (second compound 0.0316 µM, first compound 0.003 µM): 85.7%
- viability, T/C [5]: 84.5%
- viability, T/C [6]: 97.8%
- viability, T/C [7]: 83.5%
- viability, T/C [8]: 76.8%
- viability, T/C (second compound 0.1 µM, first compound 0.000949 µM): 81.7%
- viability, T/C (second compound 0.1 µM, first compound 0.003 µM): 77.7%
- viability, T/C [9]: 71.6%
- viability, T/C [10]: 81.9%
- viability, T/C [11]: 92.1%
- viability, T/C [12]: 70.5%
- viability, T/C (second compound 0.316 µM, first compound 0.000949 µM): 89.1%
- viability, T/C (second compound 0.316 µM, first compound 0.003 µM): 86.8%
- viability, T/C [13]: 88%
- viability, T/C [14]: 90.9%
- viability, T/C [15]: 84.7%
- viability, T/C [16]: 81.4%
- viability, T/C (second compound 1 µM, first compound 0.000949 µM): 82.3%
- viability, T/C (second compound 1 µM, first compound 0.003 µM): 77.3%
- viability, T/C [17]: 54.4%
- viability, T/C [18]: 83%
- viability, T/C [19]: 86.4%
- viability, T/C [20]: 79.7%

Compound: CC(C)(C)c1cnc(CSc2cnc(NC(=O)C3CCNCC3)s2)o1 + CCN1CCN(Cc2ccc(Nc3ncc(F)c(-c4cc(F)c5nc(C)n(C(C)C)c5c4)n3)nc2)CC1
- IC50 (second compound 0.01 µM): 77 nM
- IC50 (second compound 0.0316 µM): 50.9 nM
- IC50 (second compound 0.1 µM): 51.7 nM
- IC50 (second compound 0.316 µM): 39.4 nM
- IC50 (second compound 1 µM): 31.9 nM
- viability, T/C [1]: 98.5%
- viability, T/C [2]: 86%
- viability, T/C [3]: 43%
- viability, T/C [4]: 0.52%
- viability, T/C (second compound 0.01 µM, first compound 0.949 µM): 0.27%
- viability, T/C (second compound 0.01 µM, first compound 3 µM): 0.36%
- viability, T/C [5]: 79.2%
- viability, T/C [6]: 67.3%
- viability, T/C [7]: 29.3%
- viability, T/C [8]: 0.36%
- viability, T/C (second compound 0.0316 µM, first compound 0.949 µM): 0.13%
- viability, T/C (second compound 0.0316 µM, first compound 3 µM): 0.27%
- viability, T/C [9]: 74.1%
- viability, T/C [10]: 71.5%
- viability, T/C [11]: 25.9%
- viability, T/C [12]: 0.39%
- viability, T/C (second compound 0.1 µM, first compound 0.949 µM): 0.19%
- viability, T/C (second compound 0.1 µM, first compound 3 µM): 0.29%
- viability, T/C [13]: 76.2%
- viability, T/C [14]: 62%
- viability, T/C [15]: 11.2%
- viability, T/C [16]: 0.34%
- viability, T/C (second compound 0.316 µM, first compound 0.949 µM): 0.2%
- viability, T/C (second compound 0.316 µM, first compound 3 µM): 0.3%
- viability, T/C [17]: 77.1%
- viability, T/C [18]: 48.5%
- viability, T/C [19]: 29.2%
- viability, T/C [20]: 0.4%
- viability, T/C (second compound 1 µM, first compound 0.949 µM): 0.41%
- viability, T/C (second compound 1 µM, first compound 3 µM): 0.31%

Compound: COc1c(OCCCN2CCOCC2)ccc2c3n(c(=NC(=O)c4cnc(N)nc4)nc12)CCN3 + CCN1CCN(Cc2ccc(Nc3ncc(F)c(-c4cc(F)c5nc(C)n(C(C)C)c5c4)n3)nc2)CC1
- IC50 (second compound 0.01 µM): 36.7 nM
- IC50 (second compound 0.0316 µM): 32.2 nM
- IC50 (second compound 0.1 µM): 30.6 nM
- IC50 (second compound 0.316 µM): 25.3 nM
- IC50 (second compound 1 µM): 17 nM
- viability, T/C (second compound 0.01 µM, first compound 0.00316 µM): 101%
- viability, T/C (second compound 0.01 µM, first compound 0.01 µM): 79.2%
- viability, T/C [21]: 58.3%
- viability, T/C [22]: 20.7%
- viability, T/C [23]: 5.32%
- viability, T/C [24]: 3.66%
- viability, T/C (second compound 0.0316 µM, first compound 0.00316 µM): 90.4%
- viability, T/C (second compound 0.0316 µM, first compound 0.01 µM): 82.8%
- viability, T/C [25]: 47.6%
- viability, T/C [26]: 22.8%
- viability, T/C [27]: 4.08%
- viability, T/C [28]: 3.07%
- viability, T/C (second compound 0.1 µM, first compound 0.00316 µM): 85.4%
- viability, T/C (second compound 0.1 µM, first compound 0.01 µM): 77.1%
- viability, T/C [29]: 48%
- viability, T/C [30]: 21.2%
- viability, T/C [31]: 5.61%
- viability, T/C [32]: 3.57%
- viability, T/C (second compound 0.316 µM, first compound 0.00316 µM): 81.6%
- viability, T/C (second compound 0.316 µM, first compound 0.01 µM): 71.2%
- viability, T/C [33]: 43.7%
- viability, T/C [34]: 23.7%
- viability, T/C [35]: 9.48%
- viability, T/C [36]: 9.41%
- viability, T/C (second compound 1 µM, first compound 0.00316 µM): 82.3%
- viability, T/C (second compound 1 µM, first compound 0.01 µM): 63%
- viability, T/C [37]: 33.9%
- viability, T/C [38]: 24.6%
- viability, T/C [39]: 19.3%
- viability, T/C [40]: 11.8%

Compound: Cc1nc(NC(=O)N2CCCC2C(N)=O)sc1-c1ccnc(C(C)(C)C(F)(F)F)c1 (stereo not given) + CCN1CCN(Cc2ccc(Nc3ncc(F)c(-c4cc(F)c5nc(C)n(C(C)C)c5c4)n3)nc2)CC1
- IC50 (second compound 0.01 µM): 1480 nM
- IC50 (second compound 0.0316 µM): 1120 nM
- IC50 (second compound 0.1 µM): 676 nM
- IC50 (second compound 0.316 µM): 955 nM
- IC50 (second compound 1 µM): 421 nM
- viability, T/C [21]: 93.3%
- viability, T/C [22]: 88.1%
- viability, T/C [23]: 81.3%
- viability, T/C [24]: 61.2%
- viability, T/C [41]: 28.8%
- viability, T/C [42]: 3.09%
- viability, T/C [25]: 95.3%
- viability, T/C [26]: 78.9%
- viability, T/C [27]: 64.9%
- viability, T/C [28]: 60.9%
- viability, T/C [43]: 25.5%
- viability, T/C [44]: 2.8%
- viability, T/C [29]: 83.6%
- viability, T/C [30]: 83.2%
- viability, T/C [31]: 49.9%
- viability, T/C [32]: 46.4%
- viability, T/C [45]: 33%
- viability, T/C [46]: 3.21%
- viability, T/C [33]: 81.9%
- viability, T/C [34]: 79.3%
- viability, T/C [35]: 60.9%
- viability, T/C [36]: 50.8%
- viability, T/C [47]: 30.6%
- viability, T/C [48]: 9.55%
- viability, T/C [37]: 75.8%
- viability, T/C [38]: 65.5%
- viability, T/C [39]: 40.8%
- viability, T/C [40]: 50%
- viability, T/C [49]: 32.6%
- viability, T/C [50]: 12.4%

Compound: Cn1nccc1Nc1nccc(-c2ccn(C(CO)c3ccc(Cl)c(F)c3)c(=O)c2)n1 (stereo not given) + CCN1CCN(Cc2ccc(Nc3ncc(F)c(-c4cc(F)c5nc(C)n(C(C)C)c5c4)n3)nc2)CC1
- IC50 (second compound 0.01 µM): > 10000 nM
- IC50 (second compound 0.0316 µM): 6420 nM
- IC50 (second compound 0.1 µM): > 10000 nM
- IC50 (second compound 0.316 µM): 7430 nM
- IC50 (second compound 1 µM): > 10000 nM
- viability, T/C [21]: 90.8%
- viability, T/C [22]: 77%
- viability, T/C [23]: 78.3%
- viability, T/C [24]: 67.7%
- viability, T/C [41]: 76.7%
- viability, T/C [42]: 68%
- viability, T/C [25]: 89.9%
- viability, T/C [26]: 77.5%
- viability, T/C [27]: 65%
- viability, T/C [28]: 63%
- viability, T/C [43]: 76.6%
- viability, T/C [44]: 34.8%
- viability, T/C [29]: 81.9%
- viability, T/C [30]: 73.4%
- viability, T/C [31]: 55.9%
- viability, T/C [32]: 58.9%
- viability, T/C [45]: 62.3%
- viability, T/C [46]: 46.6%
- viability, T/C [33]: 73%
- viability, T/C [34]: 77.2%
- viability, T/C [35]: 56.6%
- viability, T/C [36]: 69.2%
- viability, T/C [47]: 63.4%
- viability, T/C [48]: 45.4%
- viability, T/C [37]: 73.9%
- viability, T/C [38]: 64.2%
- viability, T/C [39]: 45.9%
- viability, T/C [40]: 61.6%
- viability, T/C [49]: 66.2%
- viability, T/C [50]: 51%
